Reference: patent publication US10059636B2, “Pesticide product including polyanionic polymers” (Verdesian Life Sciences, LLC, priority 2013, dated 2018)

System: cotton
Experiment: Phosphorous fixation field test with DAP on cotton
Format: in vivo
Conditions: for % by weight Phosphorous in Tissue: cotton tissue prior to first bloom
Text: In a field test, two rates of phosphorous as diammonium phosphate (DAP) were broadcast-applied as a pre-plant fertilizer to a cotton field, namely 65 lbs of DAP per acre and 130 lbs of DAP per acre. The tests were two replications each of an unfertilized control, a DAP-only control, and DAP mixed with 0.25% w/w of a Class I polymer formulation. The formulation included 40% w/w of a partial zinc/sodium salt of T5 polymer, 5% w/w zinc, and the balance water, pH about 3,
Tissue tests were taken prior to first bloom from each plot, and the percent of phosphorous in the plant tissue was measured. After harvesting, lint yields were measured.

In the case of `N.N.O=P(O)(O)O` [DAP, diammonium phosphate], the “Lint Yield” value (65 lbs of DAP per acre) is reported as 712 lbs/acre, the “% by weight Phosphorous in Tissue” value (65 lbs of DAP per acre) is reported as 0.41 % by weight and the “Lint Yield” value (130 lbs of DAP per acre) is reported as 781 lbs/acre. For the same compound, the “% by weight Phosphorous in Tissue” value (130 lbs of DAP per acre) was 0.41 % by weight.
